Earlier results in US6391843B1, “Chemical linker compositions” (Colgate-Palmolive Co., priority 1996, dated 2002).

Tested on: insect
Details: hard surface cleaning composition

Methylneodecanamide [MNDA]
amount of MNDA necessary to deposit to have one day efficacy: 10 micrograms of MNDA per cm2
